From ChEMBL document CHEMBL1142017, “Structure-activity relationships and sub-type selectivity in an oxabicyclic estrogen receptor alpha/beta agonist scaffold” (Bioorg Med Chem Lett, 2005)

How the values were obtained:
[1] = target: T1, Estrogen receptor (Rattus norvegicus) (UniProt P06211+Q62986); assay: Effect on uterine wet weight in ovariectomized female rats after 30 mg/kg oral gavage dose; format: functional, organism-based; parameters: dose 30 mg/kg
Estrogen receptor beta [2] = target: T2, Estrogen receptor beta (Homo sapiens, UniProt Q92731)
T2 sequence (Q92731 whole entry): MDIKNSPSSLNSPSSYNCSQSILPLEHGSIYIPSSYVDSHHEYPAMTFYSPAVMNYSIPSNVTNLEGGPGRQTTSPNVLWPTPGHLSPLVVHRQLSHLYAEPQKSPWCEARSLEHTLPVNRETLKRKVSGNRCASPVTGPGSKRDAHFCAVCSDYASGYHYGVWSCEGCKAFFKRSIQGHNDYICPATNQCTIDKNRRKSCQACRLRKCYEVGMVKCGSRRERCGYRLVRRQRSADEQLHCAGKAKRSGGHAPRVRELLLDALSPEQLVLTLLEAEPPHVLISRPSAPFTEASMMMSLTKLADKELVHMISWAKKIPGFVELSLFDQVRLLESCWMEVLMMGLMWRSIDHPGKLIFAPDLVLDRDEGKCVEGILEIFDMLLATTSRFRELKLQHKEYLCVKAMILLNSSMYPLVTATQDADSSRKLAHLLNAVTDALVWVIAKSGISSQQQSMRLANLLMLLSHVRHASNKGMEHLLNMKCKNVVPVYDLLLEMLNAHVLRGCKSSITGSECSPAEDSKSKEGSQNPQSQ
Description: (§1) In vitro agonist activity for estrogen receptor beta expressed in COS-1 cells

Estrogen receptor = target: T3, Estrogen receptor (Homo sapiens, UniProt P03372)
T3 sequence (P03372 whole entry): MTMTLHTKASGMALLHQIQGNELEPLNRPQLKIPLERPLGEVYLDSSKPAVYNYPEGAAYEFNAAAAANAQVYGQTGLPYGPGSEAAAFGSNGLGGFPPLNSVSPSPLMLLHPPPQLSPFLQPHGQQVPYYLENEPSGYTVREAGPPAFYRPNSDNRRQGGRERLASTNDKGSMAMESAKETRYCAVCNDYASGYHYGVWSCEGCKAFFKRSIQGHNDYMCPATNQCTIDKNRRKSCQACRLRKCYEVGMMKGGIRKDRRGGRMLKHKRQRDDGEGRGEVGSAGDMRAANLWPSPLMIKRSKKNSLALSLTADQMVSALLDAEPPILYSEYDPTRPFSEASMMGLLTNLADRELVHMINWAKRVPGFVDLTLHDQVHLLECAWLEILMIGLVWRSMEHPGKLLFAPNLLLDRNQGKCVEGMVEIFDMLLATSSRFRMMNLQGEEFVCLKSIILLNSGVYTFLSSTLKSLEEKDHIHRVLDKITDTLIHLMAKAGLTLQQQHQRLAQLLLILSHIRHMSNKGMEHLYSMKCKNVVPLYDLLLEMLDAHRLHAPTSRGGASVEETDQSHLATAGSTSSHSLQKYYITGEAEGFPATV
Description: In vitro agonist activity for estrogen receptor alpha expressed in COS-1 cells

Estrogen receptor beta [3] = target: T2, Estrogen receptor beta; conditions: cos-1
Description: as §1

[4] = target: T1, Estrogen receptor (Rattus norvegicus); assay: Effect on uterine wet weight in ovariectomized female rats; format: functional

Row | Compound | ED50 [1] | EC50 (Estrogen receptor beta [2]) | EC50 (Estrogen receptor) | EC50 (Estrogen receptor beta [3]) | ED50 [4]
1 | C[C@]12CC[C@@H]3c4ccc(OS(=O)(=O)O)cc4CC[C@H]3[C@@H]1CCC2=O | 0.16 mg/kg/day |  |  |  | 
2 | CC1=CC[C@@]2(CO)CO[C@@H](c3ccc(O)cc3C)[C@@H]1C2 (racemic) |  | 79 nM | 92 nM |  | 
3 | CC1=CC[C@@]2(CO)CO[C@@H](c3ccc(O)cc3O)[C@@H]1C2 (racemic) |  | 275 nM | 173 nM |  | 
4 | CC1=CC[C@@]2(CO)CO[C@@H](c3ccc(O)cc3Cl)[C@]1(C)C2 (racemic) |  | 67 nM | 43 nM |  | 
5 | CC1=CC[C@@]2(CO)CO[C@@H](c3ccc(O)c(F)c3)[C@]1(C)C2 (racemic) |  | 6 nM | 68 nM |  | 
6 | CC1=CC[C@@]2(CO)CO[C@@H](c3ccc(O)c(C)c3)[C@@H]1C2 (racemic) |  | 305 nM | 137 nM |  | 
7 | CC1=CC[C@@]2(CO)CO[C@@H](c3ccc(O)c(Br)c3)[C@@H]1C2 (racemic) |  | 485 nM | 336 nM |  | 
8 | CC1=CC[C@@]2(CO)CO[C@@H](c3ccc(O)c(O)c3)[C@@H]1C2 (racemic) |  | 3160 nM | 2410 nM |  | 
9 | CC1=CC(C)(C)[C@@]2(O)CO[C@@H](c3ccc(O)cc3)[C@@H]1C2 (racemic) |  | 183 nM | 141 nM |  | 
10 | CC1=CC[C@]2(O)C[C@H]1[C@H](c1ccc(O)c(F)c1)OC2(C)C (racemic) |  | 7.2 nM | 0.6 nM |  | 
11 | CC1=CC[C@@]2(CO)CO[C@@H](c3cc(C)c(O)c(C)c3)[C@@H]1C2 (racemic) |  | 2830 nM | 743 nM |  | 
12 | COc1cc([C@@H]2OC[C@]3(CO)CC=C(C)[C@H]2C3)ccc1O (racemic) |  | 3050 nM | 1980 nM |  | 
13 | CC1=CC[C@@]2(CO)CO[C@@H](c3ccc(O)cc3)[C@]1(C)C2 (racemic) |  | 39 nM | 203 nM |  | 
14 | CC1=CC[C@@]2(O)CO[C@@H](c3ccc(O)cc3)[C@@H]1C2(C)C (racemic) |  | 24 nM | 59 nM |  | 
15 | CC1=CC[C@@]2(CO)CO[C@@H](c3ccc(O)cc3F)[C@]1(C)C2 (racemic) |  | 12 nM | 50 nM |  | 
16 | CC1=CC[C@@H]2C[C@H]1[C@H](c1ccc(O)c(C)c1)OC2(C)C (stereo in doubt) |  |  | 218 nM | 318 nM | 
17 | CC1=CC[C@@H]2C[C@H]1[C@H](c1ccc(O)cc1)OC2(C)C (stereo in doubt) |  | 195 nM | 211 nM |  | 
18 | CC1=CC[C@@]2(CO)CO[C@@H](c3ccc(O)cc3Cl)[C@@H]1C2 (stereo in doubt; (+)-25) |  | 46 nM | 138 nM |  | 
19 | CC1=CC[C@@H]2C[C@H]1[C@H](c1ccc(O)cc1)OC2(C)C (stereo in doubt; (+)-31) |  | 418 nM | 203 nM |  | 
20 | CC1=CC[C@@H]2C[C@H]1[C@H](c1ccc(O)c(C)c1)OC2(C)C (stereo in doubt; (+)-32) |  | 318 nM | 143 nM |  | 
21 | CC1=CC[C@@]2(CO)CO[C@@H](c3ccc(O)cc3Cl)[C@@H]1C2 (stereo in doubt; (-)-26) [listing 2 of 2 here] |  |  |  |  | 3.44 mg/kg/day
22 | CC1=CC[C@@]2(CO)CO[C@@H](c3ccc(O)c(F)c3)[C@@H]1C2 (stereo in doubt; (-)-28) |  | 57 nM | 254 nM |  | 

The remaining lines, values ahead:

Row | ED50 [1] | EC50 (Estrogen receptor beta [2]) | EC50 (Estrogen receptor) | EC50 (Estrogen receptor beta [3]) | ED50 [4] | Compound
23 |  | 5.3 nM | 11 nM |  |  | CC1=CC[C@@]2(CO)CO[C@@H](c3ccc(O)cc3Cl)[C@@H]1C2 (racemic)
24 |  | 25 nM | 21 nM |  |  | CC1=CC(C)(C)[C@@]2(O)CO[C@@H](c3ccc(O)cc3Cl)[C@@H]1C2 (racemic)
25 |  | 10 nM | 39 nM |  |  | CC1=CC[C@@]2(CO)CO[C@@H](c3ccc(O)cc3F)[C@@H]1C2 (racemic)
26 |  | 25 nM | 4.6 nM |  |  | CC1=CC[C@@]2(CO)CO[C@@H](c3ccc(O)c(F)c3)[C@@H]1C2 (racemic)
27 |  | 6 nM | 1 nM |  |  | CC1=CC[C@]2(O)C[C@H]1[C@H](c1ccc(O)cc1Cl)OC2(C)C (racemic)
28 |  | 9.2 nM | 1.6 nM |  |  | CC1=CC[C@]2(O)C[C@H]1[C@H](c1ccc(O)cc1)OC2(C)C (racemic)
29 |  | 1.4 nM | 1.1 nM |  |  | CC1=CC[C@]2(O)C[C@H]1[C@H](c1ccc(O)cc1F)OC2(C)C (racemic)
30 |  | 197 nM | 36 nM |  |  | CC1=CC[C@@]2(CO)CO[C@@H](c3ccc(O)c(Cl)c3)[C@@H]1C2 (racemic)
31 |  | 40 nM | 2.6 nM |  |  | CC1=CC[C@@]2(CO)CO[C@@H](c3ccc(O)c(F)c3)[C@@H]1C2 (stereo in doubt; (+)-27)
32 |  | 180 nM | 21 nM |  |  | CC1=CC[C@@]2(CO)CO[C@@H](c3ccc(O)cc3F)[C@@H]1C2 (stereo in doubt; (+)-29)
33 |  | 6.1 nM | 18 nM |  |  | CC1=CC[C@@]2(CO)CO[C@@H](c3ccc(O)cc3Cl)[C@@H]1C2 (stereo in doubt; (-)-26) [listing 1 of 2 here]
34 |  | 3.1 nM | 19 nM |  |  | CC1=CC[C@@]2(CO)CO[C@@H](c3ccc(O)cc3F)[C@@H]1C2 (stereo in doubt; (-)-30)
